Measurements reported in PubChem BioAssay (NCI).
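The compound was tested at five concentrations on cells cultured in 96-well plates, with a 48-hour exposure period. GI50 marks 50% less growth. The concentration for full growth arrest is given as TGI.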

Columns and labels:
Assay in all cases: inhibition of tumour cell growth, NCI panel, 48 h
[1] = system: U251 CNS
[2] = system: T-47D breast
[3] = system: IGROV1 ovarian
[4] = system: PC-3 prostate
[5] = system: MALME-3M melanoma
[6] = system: A549 NSCLC
[7] = system: NCI-H460 lung
[8] = system: ACHN renal
[9] = system: MDA-MB-231 breast
[10] = system: SK-MEL-5 melanoma
[11] = system: SK-MEL-28 melanoma
[12] = system: COLO 205 colon
[13] = system: SF-295 CNS
[14] = system: MDA-MB-435
[15] = system: NCI-H23 lung
[16] = system: SK-OV-3 ovarian
[17] = system: OVCAR-5 ovarian
[18] = system: MCF7 breast
[19] = system: SR leukemia
[20] = system: NCI/ADR-RES ovarian
[21] = system: A498 renal
[22] = system: SNB-19 CNS
[23] = system: HT29 colon
[24] = system: SK-MEL-2 melanoma
[25] = system: CCRF-CEM leukemia
[26] = system: HL-60(TB) leukemia
[27] = system: 786-0 renal
[28] = system: M14 melanoma
[29] = system: SN12C renal
[30] = system: BT-549 breast
[31] = system: OVCAR-4 ovarian
[32] = system: UACC-62 melanoma
[33] = system: OVCAR-8 ovarian
[34] = system: HS 578T breast
[35] = system: HCT-15 colon
[36] = system: NCI-H226 lung
[37] = system: LOX IMVI melanoma
[38] = system: KM12 colon
[39] = system: SF-268 CNS
[40] = system: UO-31 renal
[41] = system: SNB-75 CNS
[42] = system: TK-10 renal
[43] = system: K-562 leukemia
[44] = system: HCC-2998 colon
[45] = system: HCT-116 colon
[46] = system: SF-539 CNS
[47] = system: RPMI-8226 leukemia
[48] = system: RXF 393 renal
[49] = system: MOLT-4 leukemia
[50] = system: OVCAR-3 ovarian
[51] = system: CAKI-1 renal
[52] = system: NCI-H522 lung
[53] = system: EKVX NSCLC
[54] = system: DU-145 prostate
[55] = system: MDA-MB-468 breast
[56] = system: UACC-257 melanoma
[57] = system: HOP-92 NSCLC
[58] = system: HOP-62 NSCLC
[59] = system: SW-620 colon

CCN1C(=O)N(CC)C2NNC(Sc3c(C(=O)O)c4ccccc4n(C4CCCC4)c3=O)=NC21 (stereo not drawn)
GI50 [1]: 3.66 µM | TGI [1]: 15.3 µM | GI50 [2]: 7.2 µM | TGI [2]: 72.7 µM | GI50 [3]: 4.41 µM | TGI [3]: 29.4 µM | GI50 [4]: 4.06 µM | TGI [4]: 33.6 µM | GI50 [5]: 7.36 µM | TGI [5]: 25.6 µM | GI50 [6]: 4.04 µM | TGI [6]: 17.8 µM | GI50 [7]: 2.6 µM | TGI [7]: 10.7 µM | GI50 [8]: 4.36 µM | TGI [8]: 16.3 µM | GI50 [9]: 3.03 µM | TGI [9]: 11.5 µM | GI50 [10]: 3.49 µM | TGI [10]: 13.6 µM | GI50 [11]: 6.95 µM | TGI [11]: 25.7 µM | GI50 [12]: 2.04 µM | TGI [12]: 4.16 µM | GI50 [13]: 2.41 µM | TGI [13]: 7.88 µM | GI50 [14]: 1.47 µM | TGI [14]: 3.85 µM | GI50 [15]: 3.44 µM | TGI [15]: 15.4 µM | GI50 [16]: 3.35 µM | TGI [16]: 20.8 µM | GI50 [17]: 4.09 µM | TGI [17]: 22.1 µM | GI50 [18]: 2.07 µM | TGI [18]: 13.3 µM | GI50 [19]: 3.4 µM | TGI [19]: 35.7 µM | GI50 [20]: 1.92 µM | TGI [20]: 4.42 µM | GI50 [21]: 14.8 µM | TGI [21]: 42.8 µM | GI50 [22]: 4.59 µM | TGI [22]: 57.3 µM | GI50 [23]: 3.13 µM | TGI [23]: 10.5 µM | GI50 [24]: 4.15 µM | TGI [24]: 19.4 µM | GI50 [25]: 3.45 µM | TGI [25]: 38.3 µM | GI50 [26]: 2.35 µM | TGI [26]: 6.86 µM | GI50 [27]: 4.36 µM | TGI [27]: 19.4 µM | GI50 [28]: 3.28 µM | TGI [28]: 13.3 µM | GI50 [29]: 3.41 µM | TGI [29]: 16.1 µM | GI50 [30]: 9.6 µM | TGI [30]: 24.4 µM | GI50 [31]: 6.15 µM | TGI [31]: 45 µM | GI50 [32]: 3.05 µM | TGI [32]: 16.3 µM | GI50 [33]: 3.28 µM | TGI [33]: 12.7 µM | GI50 [34]: 2.21 µM | TGI [34]: 8.88 µM | GI50 [35]: 2.85 µM | TGI [35]: 11.2 µM | GI50 [36]: 4.34 µM | TGI [36]: 17.7 µM | GI50 [37]: 3.87 µM | TGI [37]: 16.2 µM | GI50 [38]: 3.3 µM | TGI [38]: 16.9 µM | GI50 [39]: 4.47 µM | TGI [39]: 45.4 µM | GI50 [40]: 4.38 µM | TGI [40]: 22.9 µM | GI50 [41]: 1.51 µM | TGI [41]: 11.8 µM | GI50 [42]: 10.3 µM | TGI [42]: 31.3 µM | GI50 [43]: 3.13 µM | TGI [43]: > 100 µM | GI50 [44]: 2.84 µM | TGI [44]: 9.8 µM | GI50 [45]: 3.09 µM | TGI [45]: 11.2 µM | GI50 [46]: 2.14 µM | TGI [46]: 5.51 µM | GI50 [47]: 4.17 µM | TGI [47]: 25.9 µM | GI50 [48]: 2.85 µM | TGI [48]: 11.9 µM | GI50 [49]: 3.88 µM | TGI [49]: 50.3 µM | GI50 [50]: 3.21 µM | TGI [50]: 12.8 µM | GI50 [51]: 3.97 µM | TGI [51]: 16.5 µM | GI50 [52]: 1.54 µM | TGI [52]: 3.74 µM | GI50 [53]: 4.69 µM | TGI [53]: 27.4 µM | GI50 [54]: 3.91 µM | TGI [54]: 18.3 µM | GI50 [55]: 2.02 µM | TGI [55]: 6.05 µM | GI50 [56]: 7.65 µM | TGI [56]: 28.2 µM | GI50 [57]: 10.3 µM | TGI [57]: 35 µM | GI50 [58]: 5.75 µM | TGI [58]: 37.2 µM | GI50 [59]: 3.3 µM | TGI [59]: 17.1 µM
